Assays:
[1] = tested on: EpiAirway; assay: Insulin tissue permeation across EpiAirway, ELISA; format: in vitro ADME; details: in vitro study 3; Tween-containing formulations
[2] = Rabbit pharmacokinetics (serum insulin) after IN, SC, IV or oral insulin; format: in vivo, ニュージーランド白色ラビット; details: PK study 2
[3] = tested on: 黄色ブドウ球菌、クロカビ、緑膿菌; assay: Antimicrobial effectiveness test (AET), USP and EP requirements; details: for AET result against EP requirements / AET result against USP requirements: insulin nasal spray formulations (placebo or active); for Preservative / antimicrobial effectiveness: in insulin nasal spray formulations, neutral pH
[4] = Compatibility of preservative with insulin (precipitation); format: physicochemical; details: presence in formulation caused insulin precipitation
[5] = tested on: グルコース; assay: Human PD clinical study, glucose by glucometer; format: in vivo, ヒト; details: intranasal administration

Compound: CCCCCCCCCC(=O)OC[C@H](COP(=O)([O-])OCC[N+](C)(C)C)OC(=O)CCCCCCCCC [DDPC, L−α−ホスファチジルコリンジデカノイル]
- Effect of removing the excipient from the formulation on insulin permeation [1]: 影響を有しなかった
- Effect of removing DDPC on BA(%), Cmax and AUClast [2]: 減少した

Compound: O=C([O-])CN(CCN(CC(=O)[O-])CC(=O)O)CC(=O)O.[Na+].[Na+] [EDTA, エデト酸二ナトリウム]
- AET result against EP requirements [3]: 有効であるとは思われなかった
- AET result against USP requirements [3]: 有効であるとは思われなかった

Compound: Cc1cccc(O)c1 [m−クレゾール]
- Preservative / antimicrobial effectiveness [3]: 有効な防腐剤ではなかった

Compound: CC(C)CC(N)B(O)O (stereo not drawn) [ベンジルアルコール]
- Preservative / antimicrobial effectiveness [3]: 有効な防腐剤ではなかった and 無効

Compound: CC(C)CC(N)B(O)O (stereo not drawn) [塩化ベンズアルコニウム]
- Preservative / antimicrobial effectiveness [3]: 最良の抗菌性能
- AET result against EP requirements [3]: 優れた防腐剤
- AET result against USP requirements [3]: 優れた防腐剤
- Compatibility with insulin [4]: 不適合性

Compound: CC(C)CC(N)B(O)O (stereo not drawn) [安息香酸ナトリウム]
- Preservative / antimicrobial effectiveness [3]: 有効な防腐剤ではなかった

Compound: インスリン: recombinant native-sequence human insulin
- Reduction of glucose (%) in patients [5]: 有効
